Test results reported in US9663478B2, “Benzotriazine oxides as drugs targeting Mycobacterium tuberculosis” (priority 2011, dated 2017).
Values after ≈ are worked out from the molar mass of the structure shown. Read-outs that look alike come from different tables or passages of the source.

Tests used:
Mtb H37Rv [1] = test: TB MIC - ITR (UIC), Institute for Tuberculosis Research; type: cell-based, Mycobacterium tuberculosis; details: for TB MIC - UIC: Tables P1, P2; for MIC: Mycobacterium tuberculosis, H37RV, read-out: TB MIC - ITR; for MIC / TB MIC - ITR: Tables 1-4
Mtb H37Rv [2] = test: TB MIC - SRI, resazurin-based microplate assay; type: cell-based, Mycobacterium tuberculosis; details: for MIC: Mycobacterium tuberculosis, H37RV
NRP Mtb H37Rv cells = test: Low-oxygen recovery assay (LORA) MIC; type: cell-based, Mycobacterium tuberculosis; details: for LORA MIC: Tables P1, P2, non-replicating M. tuberculosis; for MIC: Mycobacterium tuberculosis, H37RV, read-out: LORA MIC - ITR
[3] = Tables P1-P3, read-out: TB MIC - SRI
[4] = Tables 1-4 and text, read-out: TB MIC - SRI

SMILES | VERO Tox-SRI (Vero cells; African green monkey, 72 h) | TB MIC - UIC (Mtb H37Rv [1]) [µg/mL] | MIC (Mtb H37Rv [2]; [3]) [µg/mL] | LORA MIC (NRP Mtb H37Rv cells) [µg/mL] | Vero Tox CC50 (Vero cells; African green monkey, 72 h) [µg/mL] | MIC (Mtb H37Rv [1]) [µg/mL] | MIC (Mtb H37Rv [2]; [4]) [µg/mL] | MIC (NRP Mtb H37Rv cells; NRP Mtb, Tables 1-4 and text) [µg/mL] | also measured
[O-][n+]1nc(NC2CC2)[n+]([O-])c2ccc(Cl)cc21 [SRI-012301] | 1.36 | 0.21 | 0.625 (≈ 2.47 µM) | 0.22 |  |  |  |  | 
[O-][n+]1nc(N[C@@H]2C[C@H]3CC[C@@H]2C3)[n+]([O-])c2ccc(F)cc21 [Compound 15am, 3-((1R,2R,4S)-bicyclo[2.2.1]heptan-2-ylamino)-7-fluorobenzo[e][1,2,4]triazine 1,4-dioxide] |  |  |  |  | <2.5 | < 0.12 | 0.31 (≈ 1.07 µM) | 0.21 (≈ 0.723 µM) | 
CC1CCCCN1c1n[n+]([O-])c2cc3c(cc2[n+]1[O-])CCC3 (centres unmarked) [Compound 20w, 3-(2-methylpiperidin-1-yl)-7,8-dihydro-6H-indeno[5,6-e][1,2,4]triazine 1,4-dioxide] |  |  |  |  | >50 | 0.66 (≈ 2.2 µM) |  | 0.47 (≈ 1.56 µM) | MIC (Mtb H37Rv [2]; Table 5, read-out: MIC, H37Rv): 1.2 µg/mL (≈ 4 µM)
[O-][n+]1nc(N2CCCCC2)[n+]([O-])c2cc3c(cc21)CCC3 [Compound 20r, 3-(piperidin-1-yl)-7,8-dihydro-6H-indeno[5,6-e][1,2,4]triazine 1,4-dioxide] |  |  |  |  | 21 | 0.4 (≈ 1.4 µM) |  |  | MIC (Mtb H37Rv [2]; Table 5, read-out: MIC, H37Rv): 0.62 µg/mL (≈ 2.17 µM); MIC (NRP Mtb H37Rv cells): 0.49 µg/mL (≈ 1.71 µM)
O=S1(=O)CCN(c2n[n+]([O-])c3cc4c(cc3[n+]2[O-])CCC4)CC1 [Compound 20v, 3-(thiomorpholinosulfone-1-yl)-7,8-dihydro-6H-indeno[5,6-e][1,2,4]triazine 1,4-dioxide] |  |  |  |  |  |  |  |  | Vero Tox CC50 (Vero cells): 17 µg/mL; TB MIC - ITR (Mtb H37Rv [1]): 15 µg/mL; TB MIC - SRI (Mtb H37Rv [2]; Tables 1-4 and text): 5.0 µg/mL; LORA MIC - ITR (NRP Mtb H37Rv cells; NRP Mtb, Tables 1-4 and text): 30 µg/mL
[O-][n+]1nc(NC2CCCCC2)[n+]([O-])c2ccc(Cl)cc21 [SRI-012303] | 2.62 | 0.94 | 0.625 (≈ 2.12 µM) | 0.63 |  |  |  |  | 
[O-][n+]1nc(NC2CCC2)[n+]([O-])c2ccc(F)cc21 [SRI-012276] | 2.5 | 0.4 | 0.312 (≈ 1.25 µM) | 0.88 |  |  |  |  | 
[O-][n+]1nc(NC2CCC2)[n+]([O-])c2ccc(Br)cc21 [Compound 15cd, 7-bromo-3-(cyclobutylamino)benzo[e][1,2,4]triazine 1,4-dioxide] |  |  |  |  | 3.8 | 0.46 (≈ 1.48 µM) | 0.15 (≈ 0.482 µM) | 0.41 (≈ 1.32 µM) | 
[O-][n+]1nc(N[C@@H]2C[C@H]3CC[C@@H]2C3)[n+]([O-])c2ccc(Cl)cc21 [Compound 15bm, 3-((1R,2R,4S)-bicyclo[2.2.1]heptan-2-ylamino)-7-chlorobenzo[e][1,2,4]triazine 1,4-dioxide] |  |  |  |  | 1.1 | 0.22 (≈ 0.717 µM) | 0.15 (≈ 0.489 µM) | 0.23 (≈ 0.75 µM) | 
CN(CCc1ccccc1)c1n[n+]([O-])c2cc3c(cc2[n+]1[O-])CCC3 [Compound 20u, 3-(methyl(phenethyl)amino)-7,8-dihydro-6H-indeno[5,6-e][1,2,4]triazine 1,4-dioxide] |  |  |  |  | 40 | 0.24 (≈ 0.713 µM) |  | 0.44 (≈ 1.31 µM) | MIC (Mtb H37Rv [2]; Table 5, read-out: MIC, H37Rv): 0.31 µg/mL (≈ 0.922 µM)
[O-][n+]1nc(NC2CC2)[n+]([O-])c2ccc(Cl)cc21 [Compound 15bb, 7-chloro-3-(cyclopropylamino)benzo[e][1,2,4]triazine 1,4-dioxide] |  |  |  |  | 1.3 | 0.21 (≈ 0.831 µM) | 0.62 (≈ 2.45 µM) | 0.22 (≈ 0.871 µM) | 
[O-][n+]1nc(N[C@H]2[C@@H]3C[C@H]4C[C@@H](C3)C[C@@H]2C4)[n+]([O-])c2ccccc21 [Compound 8n, 3-((1R,3S,5r,7r)-adamantan-2-ylamino)benzo[e][1,2,4]triazine 1,4-dioxide] |  |  |  |  |  |  |  |  | Vero Tox CC50 (Vero cells): 7.3 µg/mL; TB MIC - ITR (Mtb H37Rv [1]): 1.9 µg/mL; TB MIC - SRI (Mtb H37Rv [2]; Tables 1-4 and text): 2.5 µg/mL; LORA MIC - ITR (NRP Mtb H37Rv cells; NRP Mtb, Tables 1-4 and text): 2.3 µg/mL
CCC(COC)Nc1n[n+]([O-])c2cc(Cl)ccc2[n+]1[O-] (centres unmarked) [SRI-012304] | 2.6 | 1.46 | 1.25 (≈ 4.18 µM) | 0.78 |  |  |  |  | 
[O-][n+]1nc(N[C@@H]2C[C@H]3CC[C@@H]2C3)[n+]([O-])c2ccc(F)cc21 (racemic) [SRI-012280] | <2.5 | < 0.125 | 0.312 (≈ 1.07 µM) | 0.21 |  |  |  |  | 
CCNc1n[n+]([O-])c2cc(Cl)ccc2[n+]1[O-] [Compound 15ba, 7-chloro-3-(ethylamino)benzo[e][1,2,4]triazine 1,4-dioxide] |  |  |  |  | 2.6 | < 0.12 | 1.2 (≈ 4.99 µM) | 0.41 (≈ 1.7 µM) | 
CCNc1n[n+]([O-])c2cc3c(cc2[n+]1[O-])CCC3 [SRI-012286] | 36.0 | 0.95 |  | 0.83 |  |  |  |  | MIC (Mtb H37Rv [2]; read-out: Activity against H37Rv, Table P4): 1.25 µg/mL (≈ 5.08 µM); MIC (Mtb H37Rv [2]; read-out: TB MIC - SRI, Tables P1-P3): 1.25 µg/mL (≈ 5.08 µM)
